# Several values for one entry are separate records, joined by “and”; a condition that tells them apart may be missing. Equal entries are not always repeated. Where two headings read alike, the source gives them in different places.
# Tests used:
# CSF1R [1] = target: T1, CSF1R (Homo sapiens, UniProt P07333); set-up: method as in PMID 38141285; settings: cited from earlier work
# CSF1R [2] = target: T1, CSF1R; set-up: method as in Aarhus et al. [19]; settings: LANCE Ultra assay; ATP level 25 μM; previously reported data ref Aarhus et al. [19]; cited from earlier work
# CSF1R [3] = target: T1, CSF1R; assay: CSF1R enzymatic inhibitory assay, LANCE Ultra TR-FRET (Perkin Elmer); format: biochemical
# Experimental: (§1) CSF1R enzymatic inhibitory assay
# (§2) The compounds were supplied in a 10 mM DMSO solution, and enzymatic CSF1R inhibition potency was determined by Invitrogen (ThermoFisher) using their Z’-LYTE® assay technology.[11] The assay is based on fluorescence resonance energy transfer (FRET). In the primary reaction, the kinase transfers the gamma-phosphate of ATP to a single tyrosine residue in a synthetic FRET-peptide. In the secondary reaction, a site-specific protease recognizes and cleaves non-phosphorylated FRET-peptides. Thus, phosphorylation of FRET-peptides suppresses cleavage by the development reagent. Cleavage disrupts FRET between the donor (i.e. coumarin) and acceptor (i.e., fluorescein) fluorophores on the FRET-peptide, whereas uncleaved, phosphorylated FRET-peptides maintain FRET. […]
# (§3) The TR-FRET-based LANCE Ultra assay (Perkin Elmer) was used to determine IC50 values for various CSF1R inhibitors. Kinase activity and inhibition in this assay was measured as […]
# recommended by the manufacturer. […] Subsequently, phosphorylation or inhibition was detected by addition of specific europium (Eu)-labelled anti-phospho-antibodies (2 nM), which upon binding to the phospho-peptide give rise to a FRET signal. The FRET signal was recorded in a time-resolved manner in a Perkin Elmer EnVision reader. […] All assay data was analysed with the Quattro Workflow software package from Quattro Research.
# CSF1R [4] = target: T1, CSF1R; assay: CSF1R enzymatic inhibitory assay, Z'-LYTE (Invitrogen/ThermoFisher); format: biochemical; settings: ATP level equal to KM 10 μM, two titration curves (20 data points)
# Experimental: Figure 2 CSF1R inhibition (IC50 curves) for the 7-azaindole 3c (red squares), pyrrolopyrimidine 1 (blue circles) and thienopyrimidine 2 (green triangles). The solid lines are regression curves generated from 20 data points each. The assay was performed at ThermoFisher (Invitrogen, San Diego, CA, USA) using the Z-lyte technology; ATP level was equal to KM.
# as §1, §2, §3
# T1 sequence (P07333 20-972): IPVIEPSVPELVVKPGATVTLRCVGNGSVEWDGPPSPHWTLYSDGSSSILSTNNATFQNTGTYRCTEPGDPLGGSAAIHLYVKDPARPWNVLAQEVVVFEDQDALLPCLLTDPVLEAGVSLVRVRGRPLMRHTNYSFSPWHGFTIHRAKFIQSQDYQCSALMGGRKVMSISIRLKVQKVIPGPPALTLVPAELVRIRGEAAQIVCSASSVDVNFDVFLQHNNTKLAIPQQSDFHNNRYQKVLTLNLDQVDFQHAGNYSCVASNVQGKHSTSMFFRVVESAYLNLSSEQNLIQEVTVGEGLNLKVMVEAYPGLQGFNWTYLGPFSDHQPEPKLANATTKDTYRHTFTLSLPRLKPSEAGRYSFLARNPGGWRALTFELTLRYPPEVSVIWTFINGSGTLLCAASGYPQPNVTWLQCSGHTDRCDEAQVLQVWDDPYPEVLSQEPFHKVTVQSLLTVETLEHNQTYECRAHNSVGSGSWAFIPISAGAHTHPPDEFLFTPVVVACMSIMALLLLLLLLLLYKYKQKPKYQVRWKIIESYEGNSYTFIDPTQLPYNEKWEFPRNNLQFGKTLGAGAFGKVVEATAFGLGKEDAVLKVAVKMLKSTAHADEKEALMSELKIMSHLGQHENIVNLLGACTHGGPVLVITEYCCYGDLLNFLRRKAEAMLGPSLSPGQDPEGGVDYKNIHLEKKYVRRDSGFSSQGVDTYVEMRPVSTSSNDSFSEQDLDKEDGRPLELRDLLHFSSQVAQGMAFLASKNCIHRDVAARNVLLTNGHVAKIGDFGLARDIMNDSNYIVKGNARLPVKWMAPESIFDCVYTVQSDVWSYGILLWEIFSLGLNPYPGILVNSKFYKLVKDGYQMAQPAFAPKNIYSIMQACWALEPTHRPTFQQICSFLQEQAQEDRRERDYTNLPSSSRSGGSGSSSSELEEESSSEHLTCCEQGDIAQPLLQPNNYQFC
smiles,measurement,setting,value
CN(Cc1ccccc1)c1ncnc2sc(-c3ccc(CO)cc3)cc12 [compound 2],CSF1R inhibitory activity in enzymatic studies (in words),CSF1R [1],far less active
same,IC50,CSF1R [2],450 nM
"COc1ccc(-c2[nH]c3nccc4c3c2Cc2ccccc2CN4C)cc1 [16b, 1-(4-Methoxyphenyl)-6-methyl-2,6,7,12-tetrahydro-2,3,6-triazabenzo[6,7]cycloocta[1,2,3-cd]indene]",melting point,,287 to 289 °C (dec.)
"CN(Cc1ccccc1)c1ccnc2[nH]c(-c3ccccc3)cc12 [3a, N-Benzyl-N-methyl-2-phenyl-1H-pyrrolo-[2,3-b]pyridin-4-amine]",melting point,,191 to 193 °C
"CN(Cc1ccccc1)c1ccnc2[nH]c(-c3ccc(CO)cc3)cc12 [3c, (4-(4-(Benzyl(methyl)amino)-1H-pyrrolo[2,3-b]pyridin-2-yl)phenyl)methanol]",fold lower CSF1R activity compared to the corresponding pyrrolopyrimidine (reference inhibitor 1),CSF1R [3]; CSF1R assay with higher ATP concentration (25 μM),20 fold
same,IC50,"CSF1R [3]; LANCE Ultra assay, ATP level 25 μM",105 nM
same,IC50,CSF1R [4],3 nM and 3.1 nM
same,melting point,,200 to 201 °C

# Source: PMC11478076, “Synthetic Routes to 2-aryl-1H-pyrrolo[2,3-b]pyridin-4-amines: Cross-Coupling and Challenges in SEM-Deprotection” (Molecules, 2024)
